Literature values, collected in patent publication US20140228218A1, “PARAFFINIC OIL AND CLASS B GIBBERELLIN BIOSYNTHESIS INHIBITOR COMPOSITIONS” (SUNCOR ENERGY INC., priority 2011, published 2014).

Test system: the plant being treated
Details: in vivo

Compound: CC(C)(C)[C@@H](O)[C@@H](Cc1ccc(Cl)cc1)n1cncn1 (relative stereo) [paclobutrazol, (±)-(R*,R*)-beta-[(4-chlorophenyl)methyl]-alpha-(1,1-dimethylethyl)-1H-1,2,4-triazole-1-ethanol]
- phytotoxicity to the plant being treated (in words): can cause phytoxicity
